Reference: US20060019966A1, “Method for treating nervous system disorders and conditions” (Wyeth, priority 2004, published 2006)

Assays:
[1] = system: tail skin temperature (TST) in ovariectomized (OVX) rats; experiment: Telemetry rat model of ovariectomy-induced thermoregulatory dysfunction; assay type: in vivo; conditions: 30 mg/kg, sc, single dose
Source text: Telemetry model: This model has been modified from a previously reported protocol describing estrogen regulation of diurnal tail skin temperature (TST) patterns (Berendsen, et al., European Journal of Pharmacology, 2001, 419(1): 47-54). […] In ovariectomized (OVX) rats, TST is elevated over the entire 24-hour period, thus the usual decrease in TST during the active (dark) phase is lost, thus, a compound's ability to restore this lowering of TST during the active phase was examined. […] After a 7-day recovery period, TST readings were continuously recorded for the remainder of the study. Tail skin temperature readings were collected from each animal every 5 minutes with values obtained over a 10 second sampling period. The day before test day, an average baseline TST value was calculated for each animal by averaging temperature readings recorded during the 12 hour active (dark) phase. […]
Statistical analysis: Evaluation of a compound's ability to restore normal lowering of TST in the telemetry model was analyzed using hourly TST values calculated for each animal by averaging the 12 temperature readings obtained every 5 minutes over that recording time. […]

hNET = target: T1, hNET (Homo sapiens, UniProt P23975); experiment: Norepinephrine (NE) uptake assay, hNET function uptake; assay type: cell-based; conditions: MDCK-Net6 cells, [3H]NE uptake
T1 construct: expressed in transfected cells; host or cells: MDCK-Net6 (MDCK cells stably transfected with hNET)
Experimental: (§1) The JAR cell line (human placental choriocarcinoma) may be purchased from ATCC (Cat. No. HTB-144). […] For all assays, cells may be plated in Wallac 96-well sterile plates (PerkinElmer, Cat. No. 3983498).
Test compounds are prepared in DMSO (10 mM) and diluted in assay buffer according to test range (1 to 10,000 nM). Twenty-five microliters of assay buffer (maximum NE uptake) or test compound are added directly to triplicate wells containing cells in 200 μl of assay buffer. […] To initiate the NE uptake, [^3H]NE diluted in assay buffer (120 nM final assay concentration) is delivered in 25 μl aliquots to each well and the plates is incubated for 5 minutes (37° C.).

[2] = target: T2, recombinant human dopamine transporter (hDAT) (Homo sapiens, UniProt Q01959); experiment: Dopamine uptake transporter binding assay (3H-WIN 35,428); conditions: inhibition of 3H-WIN 35,428 binding to hDAT membranes
T2 construct: purchased PerkinElmer RBHDATM

hSERT = target: T3, hSERT (Homo sapiens, UniProt P31645); experiment: Serotonin (5-HT) uptake assay, hSERT function uptake; assay type: cell-based; conditions: JAR cells, [3H]5-HT uptake
T3 construct: The methods for 5-HT functional reuptake using the JAR cell line; host or cells: JAR (human placental choriocarcinoma), staurosporine-stimulated
Experimental: as §1
The methods for 5-HT functional reuptake using the JAR cell line is modified using a previous literature report (Prasad, et al., Placenta, 1996. 17(4): 201-7). […] On day 2, cells are stimulated with staurosporine (40 nM) to increase the expression of the 5-HT transporter. On day 3, cells are removed from the cell incubator two hours prior to assay and maintained at room temperature to equilibrate the growth medium to ambient oxygen concentration. […] Data from these wells are used to define non-specific 5-HT uptake (minimum 5-HT uptake). Test compounds are prepared in DMSO (10 mM) and diluted in assay buffer according to test range (1 to 1,000 nM). Twenty-five microliters of assay buffer (maximum 5-HT uptake) or test compound are added directly to triplicate wells containing cells in 200 μl of assay buffer. The cells are incubated with the compound for 10 minutes (37° C.). To initiate the reaction, [^3H]hydroxytryptamine creatinine sulfate diluted in assay buffer is delivered in 25 μl aliquots to each well for a final test concentration of 15 nM. The cells are incubated with the reaction mixture for 5 minutes at 37° C. The 5-HT uptake reaction is terminated by decanting the assay buffer.

T1 sequence (P23975 whole entry): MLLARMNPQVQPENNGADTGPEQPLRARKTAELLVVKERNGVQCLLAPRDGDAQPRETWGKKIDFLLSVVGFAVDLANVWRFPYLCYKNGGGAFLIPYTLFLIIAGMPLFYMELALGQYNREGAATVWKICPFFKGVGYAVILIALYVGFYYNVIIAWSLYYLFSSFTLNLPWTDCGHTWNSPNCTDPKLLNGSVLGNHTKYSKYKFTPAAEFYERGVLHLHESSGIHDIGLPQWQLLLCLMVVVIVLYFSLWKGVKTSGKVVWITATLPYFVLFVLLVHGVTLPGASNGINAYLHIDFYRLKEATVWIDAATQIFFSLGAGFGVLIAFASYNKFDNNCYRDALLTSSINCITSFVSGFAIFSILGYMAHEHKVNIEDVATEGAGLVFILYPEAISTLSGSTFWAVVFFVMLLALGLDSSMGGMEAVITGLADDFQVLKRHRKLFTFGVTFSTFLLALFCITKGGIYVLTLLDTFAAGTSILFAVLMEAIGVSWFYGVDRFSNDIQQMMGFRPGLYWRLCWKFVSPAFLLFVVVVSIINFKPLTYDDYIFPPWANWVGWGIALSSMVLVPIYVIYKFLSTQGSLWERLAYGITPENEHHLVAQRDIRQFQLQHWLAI
T2 sequence (Q01959 whole entry): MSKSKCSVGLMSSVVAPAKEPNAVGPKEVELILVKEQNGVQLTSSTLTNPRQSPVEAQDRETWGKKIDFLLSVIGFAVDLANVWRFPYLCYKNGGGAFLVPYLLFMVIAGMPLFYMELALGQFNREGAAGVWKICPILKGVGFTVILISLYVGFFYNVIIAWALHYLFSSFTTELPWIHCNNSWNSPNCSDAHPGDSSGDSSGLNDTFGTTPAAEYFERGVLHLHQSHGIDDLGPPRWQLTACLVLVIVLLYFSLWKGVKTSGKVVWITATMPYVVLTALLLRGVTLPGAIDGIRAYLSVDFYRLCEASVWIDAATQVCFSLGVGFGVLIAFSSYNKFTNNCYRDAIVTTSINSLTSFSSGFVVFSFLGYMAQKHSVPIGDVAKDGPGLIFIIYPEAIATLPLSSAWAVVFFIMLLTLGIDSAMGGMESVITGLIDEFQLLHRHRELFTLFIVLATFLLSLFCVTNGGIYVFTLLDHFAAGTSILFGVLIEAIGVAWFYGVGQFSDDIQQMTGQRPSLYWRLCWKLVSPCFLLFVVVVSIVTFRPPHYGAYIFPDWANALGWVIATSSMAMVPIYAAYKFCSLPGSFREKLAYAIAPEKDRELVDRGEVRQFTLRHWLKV
T3 sequence (P31645 whole entry): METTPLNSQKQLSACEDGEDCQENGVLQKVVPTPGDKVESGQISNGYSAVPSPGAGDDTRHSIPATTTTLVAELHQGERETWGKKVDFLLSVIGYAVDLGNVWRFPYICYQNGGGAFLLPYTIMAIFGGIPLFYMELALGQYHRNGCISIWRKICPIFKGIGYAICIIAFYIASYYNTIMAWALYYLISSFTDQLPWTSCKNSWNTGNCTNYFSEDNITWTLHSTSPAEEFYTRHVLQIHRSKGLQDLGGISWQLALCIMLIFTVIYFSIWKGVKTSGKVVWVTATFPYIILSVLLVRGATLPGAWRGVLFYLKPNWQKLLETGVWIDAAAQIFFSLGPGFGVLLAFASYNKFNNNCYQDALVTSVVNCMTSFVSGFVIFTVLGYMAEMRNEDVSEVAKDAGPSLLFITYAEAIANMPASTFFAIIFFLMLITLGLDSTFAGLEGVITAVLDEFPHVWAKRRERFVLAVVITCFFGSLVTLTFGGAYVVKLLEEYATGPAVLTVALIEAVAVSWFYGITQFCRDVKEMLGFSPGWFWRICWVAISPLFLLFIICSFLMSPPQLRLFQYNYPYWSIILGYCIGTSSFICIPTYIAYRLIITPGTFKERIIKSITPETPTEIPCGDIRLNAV

Row | EC50 (hNET) [nM] | hDAT binding (% I at 10 μM) [2] [%] | EC50 (hSERT) [nM] | Structure (SMILES) | effect on tail skin temperature (TST) [1]
1 | 1180 | 55 | 977 | Cc1ccc(C23CNCC2C3)cc1 (single isomer, unassigned; (-)) [(−)-1-(4-methylphenyl)-3-azabicyclo[3.1.0]hexane] | restored normal TST
2 |  |  |  | Fc1ccc(C(OCCN2CCN(CCCc3ccccc3)CC2)c2ccc(F)cc2)cc1 [1-[2-[bis(4-fluorophenyl)methoxy]ethyl]-4-(3-phenylpropyl)piperazine, reference compound] | restored normal TST
